# Key:
# MKN-45 tumors = assay: MKN-45 gastric adenocarcinoma xenograft model; type: in vivo, mouse
# Protocol: MKN-45 and Ba/F3 ETV6-CSF1R cells were cultured using standard techniques in RPMI-1640 medium (Corning, Inc) with 10% fetal bovine serum (Thermo Fisher Scientific, Inc) at 37° C. in a humidified atmosphere with 5% CO2. For implantation, cells were harvested and pelleted by centrifugation at 250 g for 2 minutes. Cells were washed once and resuspended in serum-free medium supplemented with 50% matrigel (v/v).
# Female athymic nude mice (5-8 weeks of age) were obtained from Charles River Laboratory and were housed in Innovive IVC disposable cages on HEPA filtered ventilated racks with ad libitum access to rodent chow and water. Five million cells in 100 μL serum-free medium supplemented with 50% matrigel (Corning, Inc) were implanted subcutaneously in the right flank region of the mouse. Tumor size and body weight were measured on designated days. Tumor size was measured with an electronic caliper and tumor volume was calculated as the product of length*width^2*0.5.
# The Met gene amplification in MKN-45 cells underlies the molecular mechanism for tumor growth. Athymic nude mice bearing MKN-45 tumors (at the average tumor size of 210 mm^3) were dosed with Compound 5 orally BID for twelve days (FIG. 7). The control group of mice were given vehicle only. Tumor volume (TMV) was measured by caliper on the indicated days and is shown at mean±sem in FIG. 7. […] Tumor growth inhibition (TGI) was calculated as 100%*{1−[(TMVTreated Last Day of Treatment−TMVTreated First Day of Treatment)/(TMVControl on Last Day of Treatment−TMVControl on First Day of Treatment)]} when TMVTreated Last Day of Treatment≥TMVTreated First Day of Treatment. In the case of TMVTreated Last Day of Treatment<TMVTreated First Day of Treatment., tumor regression (REG) was calculated as 100%*(1−TMVTreated Last Day of Treatment/TMVTreated First Day of Treatment). […] Tumor size was reduced in 5 out 10 mice treated with Compound 5 at 10 mg/kg, BID and in 9 out of 10 mice treated with Compound 5 at 30 mg/kg.
# SRC = target: T1, SRC (Homo sapiens, UniProt P12931); assay: Biochemical kinase assay (Reaction Biology), SRC; settings: 10 μM ATP; read-out: Enzymatic Kinase SRC IC50
# T1 construct: purchased Reaction Biology Corporation (assay service; enzyme from the CRO's panel)
# T1 sequence (P12931 whole entry): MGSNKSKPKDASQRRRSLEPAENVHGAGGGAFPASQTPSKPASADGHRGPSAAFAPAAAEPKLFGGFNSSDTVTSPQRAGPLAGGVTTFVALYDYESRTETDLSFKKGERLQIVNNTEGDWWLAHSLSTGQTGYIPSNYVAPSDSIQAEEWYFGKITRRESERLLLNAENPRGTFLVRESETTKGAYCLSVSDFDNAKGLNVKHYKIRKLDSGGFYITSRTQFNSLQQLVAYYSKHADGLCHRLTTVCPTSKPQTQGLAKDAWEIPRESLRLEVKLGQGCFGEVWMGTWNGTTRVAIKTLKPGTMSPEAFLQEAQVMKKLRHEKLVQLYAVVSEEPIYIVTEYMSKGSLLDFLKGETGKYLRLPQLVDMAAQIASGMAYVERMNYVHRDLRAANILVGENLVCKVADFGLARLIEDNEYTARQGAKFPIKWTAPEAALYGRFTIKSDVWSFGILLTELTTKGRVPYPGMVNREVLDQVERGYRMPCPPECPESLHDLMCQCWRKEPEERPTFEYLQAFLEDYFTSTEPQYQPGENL
# Protocol: The biochemical kinase assay was performed at Reaction Biology Corporation (www.reactionbiology.com, Malvern, PA) following the procedures described in the reference (Anastassiadis T, et al Nat Biotechnol. 2011, 29, 1039). Specific kinase/substrate pairs along with required cofactors were prepared in reaction buffer; 20 mM Hepes pH 7.5, 10 mM MgCl2,1 mM EGTA, 0.02% Brij35, 0.02 mg/ml BSA, 0.1 mM Na3VO4, 2 mM DTT, 1% DMSO (for specific details of individual kinase reaction components see Supplementary Table 2). Compounds were delivered into the reaction, followed ˜20 minutes later by addition of a mixture of ATP (Sigma, St. Louis MO) and ^33P ATP (Perkin Elmer, Waltham MA) to a final concentration of 10 μM. Reactions were carried out at room temperature for 120 min, followed by spotting of the reactions onto P81 ion exchange filter paper (Whatman Inc., Piscataway, NJ). Unbound phosphate was removed by extensive washing of filters in 0.75% phosphoric acid. […] IC50 values and curve fits were obtained using Prism (GraphPad Software).
# The enzymatic kinase inhibition activities at 10 μM ATP concentration were determined at Reaction Biology.
smiles,measurement,setting,value
"CCN1Cc2c(ccc(F)c2C#N)O[C@@H](C)CNC(=O)c2c(N)nn3ccc1nc23 [Compound 5, (7S)-3-amino-14-ethyl-11-fluoro-7-methyl-4-oxo-4,5,6,7,13,14-hexahydro-1,15-ethenopyrazolo[4,3-f][1,4,8,10]benzoxatriazacyclotridecine-12-carbonitrile]",tumor growth inhibition (TGI),"MKN-45 tumors; 3 mg/kg, BID, oral, twelve days",47%
same,tumor regression (REG),"MKN-45 tumors; 10 mg/kg, BID, oral, twelve days",6%
same,mice with reduced tumor size,MKN-45 tumors; 30 mg/kg,9 out of 10
same,tumor regression (REG),"MKN-45 tumors; 30 mg/kg, BID, oral, twelve days",44%
same,mean tumor volume (TMV) compared to control group,"MKN-45 tumors; treated groups 3, 10, 30 mg/kg BID, p<0.05",significantly lower
same,IC50,SRC,0.12 nM
